Experiment: Effect of temperature (and pH) on the stability of the solution (purity)
Format: physicochemical
Details: 7% solution in water

CCN(CC)CCOC(=O)Cc1c(C)n(C(=O)c2ccc(Cl)cc2)c2ccc(OC)cc12.Cl
Purity(%) at day 0 (pH 1.0, day 0): 98.1 ± 0.3%
Purity(%) at day 21 (5° C.) (pH 1.0, day 21, 5° C.): 92.3 ± 0.3%
Purity(%) at day 21 (25° C.) (pH 1.0, day 21, 25° C.): 69.0 ± 0.3%
Purity(%) at day 21 (40° C.) (pH 1.0, day 21, 40° C.): 15.3 ± 0.3%
Purity (%) at day 21 (60° C.) (pH 1.0, day 21, 60° C.): 0%
Purity(%) at day 0 (pH 2.0, day 0): 98.3 ± 0.4%
Purity(%) at day 21 (5° C.) (pH 2.0, day 21, 5° C.): 95.9 ± 0.3%
Purity(%) at day 21 (25° C.) (pH 2.0, day 21, 25° C.): 83.1 ± 0.3%
Purity(%) at day 21 (40° C.) (pH 2.0, day 21, 40° C.): 27.5 ± 0.3%
Purity (%) at day 21 (60° C.) (pH 2.0, day 21, 60° C.): 0%
Purity(%) at day 0 (pH 3.0, day 0): 98.5 ± 0.2%
Purity(%) at day 21 (5° C.) (pH 3.0, day 21, 5° C.): 97.3 ± 0.3%
Purity(%) at day 21 (25° C.) (pH 3.0, day 21, 25° C.): 94.5 ± 0.2%
Purity(%) at day 21 (40° C.) (pH 3.0, day 21, 40° C.): 49.3 ± 0.3%
Purity (%) at day 21 (60° C.) (pH 3.0, day 21, 60° C.): 0%
Purity(%) at day 0 (pH 3.7, day 0): 98.5 ± 0.2%
Purity(%) at day 21 (5° C.) (pH 3.7, day 21, 5° C.): 97.7 ± 0.2%
Purity(%) at day 21 (25° C.) (pH 3.7, day 21, 25° C.): 97.3 ± 0.3%
Purity(%) at day 21 (40° C.) (pH 3.7, day 21, 40° C.): 57.9 ± 0.2%
Purity (%) at day 21 (60° C.) (pH 3.7, day 21, 60° C.): 16.3 ± 0.5%
Purity(%) at day 0 (pH 4.0, day 0): 98.7 ± 0.1%
Purity(%) at day 21 (5° C.) (pH 4.0, day 21, 5° C.): 98.1 ± 0.3%
Purity(%) at day 21 (25° C.) (pH 4.0, day 21, 25° C.): 97.5 ± 0.2%
Purity(%) at day 21 (40° C.) (pH 4.0, day 21, 40° C.): 68.7 ± 0.3%
Purity (%) at day 21 (60° C.) (pH 4.0, day 21, 60° C.): 19.6 ± 0.3%
Purity(%) at day 0 (pH 4.3, day 0): 98.8 ± 0.2%
Purity(%) at day 21 (5° C.) (pH 4.3, day 21, 5° C.): 98.3 ± 0.3%
Purity(%) at day 21 (25° C.) (pH 4.3, day 21, 25° C.): 97.3 ± 0.3%
Purity(%) at day 21 (40° C.) (pH 4.3, day 21, 40° C.): 70.1 ± 0.3%
Purity (%) at day 21 (60° C.) (pH 4.3, day 21, 60° C.): 17.7 ± 0.2%
Purity(%) at day 0 (pH 4.6, day 0): 98.7 ± 0.1%
Purity(%) at day 21 (5° C.) (pH 4.6, day 21, 5° C.): 98.2 ± 0.2%
Purity(%) at day 21 (25° C.) (pH 4.6, day 21, 25° C.): 96.4 ± 0.2%
Purity(%) at day 21 (40° C.) (pH 4.6, day 21, 40° C.): 56.3 ± 0.2%
Purity (%) at day 21 (60° C.) (pH 4.6, day 21, 60° C.): 15.3 ± 0.3%
Purity(%) at day 0 (pH 5.0, day 0): 98.6 ± 0.3%
Purity(%) at day 21 (5° C.) (pH 5.0, day 21, 5° C.): 97.0 ± 0.2%
Purity(%) at day 21 (25° C.) (pH 5.0, day 21, 25° C.): 94.1 ± 0.3%
Purity(%) at day 21 (40° C.) (pH 5.0, day 21, 40° C.): 42.8 ± 0.3%
Purity (%) at day 21 (60° C.) (pH 5.0, day 21, 60° C.): 1.9 ± 0.2%
Purity(%) at day 0 (pH 6.0, day 0): 98.5 ± 0.4%
Purity(%) at day 21 (5° C.) (pH 6.0, day 21, 5° C.): 95.3 ± 0.3%
Purity(%) at day 21 (25° C.) (pH 6.0, day 21, 25° C.): 87.8 ± 0.2%
Purity(%) at day 21 (40° C.) (pH 6.0, day 21, 40° C.): 27.6 ± 0.2%
Purity (%) at day 21 (60° C.) (pH 6.0, day 21, 60° C.): 0%
Purity(%) at day 0 (pH 7.0, day 0): 98.4 ± 0.3%
Purity(%) at day 21 (5° C.) (pH 7.0, day 21, 5° C.): 90.2 ± 0.3%
Purity(%) at day 21 (25° C.) (pH 7.0, day 21, 25° C.): 59.9 ± 0.3%
Purity(%) at day 21 (40° C.) (pH 7.0, day 21, 40° C.): 11.4 ± 0.4%
Purity (%) at day 21 (60° C.) (pH 7.0, day 21, 60° C.): 0%
Purity(%) at day 0 (pH 8.0, day 0): 98.0 ± 0.5%
Purity(%) at day 21 (5° C.) (pH 8.0, day 21, 5° C.): 79.3 ± 0.4%
Purity(%) at day 21 (25° C.) (pH 8.0, day 21, 25° C.): 47.6 ± 0.3%
Purity(%) at day 21 (40° C.) (pH 8.0, day 21, 40° C.): 0%
Purity (%) at day 21 (60° C.) (pH 8.0, day 21, 60° C.): 0%

Reference: patent publication US20230157952A1, “METHOD FOR IMPROVING THE STABILITY OF A PHARMACEUTICAL COMPOSITION COMPRISING A HIGH PENETRATION DRUG, AND THE PHARMACEUTICAL COMPOSITION OBTAINED THEREFROM” (Techfields Inc., priority 2020, published 2023)
